ChEMBL document CHEMBL1134302, “Cheminformatic models to predict binding affinities to human serum albumin” (J Med Chem, 2001)

These compounds were tested against Albumin (Homo sapiens, UniProt P02768) (assay: Binding constant against human serum albumin (HSA)).
Chain of Albumin (P02768 whole entry): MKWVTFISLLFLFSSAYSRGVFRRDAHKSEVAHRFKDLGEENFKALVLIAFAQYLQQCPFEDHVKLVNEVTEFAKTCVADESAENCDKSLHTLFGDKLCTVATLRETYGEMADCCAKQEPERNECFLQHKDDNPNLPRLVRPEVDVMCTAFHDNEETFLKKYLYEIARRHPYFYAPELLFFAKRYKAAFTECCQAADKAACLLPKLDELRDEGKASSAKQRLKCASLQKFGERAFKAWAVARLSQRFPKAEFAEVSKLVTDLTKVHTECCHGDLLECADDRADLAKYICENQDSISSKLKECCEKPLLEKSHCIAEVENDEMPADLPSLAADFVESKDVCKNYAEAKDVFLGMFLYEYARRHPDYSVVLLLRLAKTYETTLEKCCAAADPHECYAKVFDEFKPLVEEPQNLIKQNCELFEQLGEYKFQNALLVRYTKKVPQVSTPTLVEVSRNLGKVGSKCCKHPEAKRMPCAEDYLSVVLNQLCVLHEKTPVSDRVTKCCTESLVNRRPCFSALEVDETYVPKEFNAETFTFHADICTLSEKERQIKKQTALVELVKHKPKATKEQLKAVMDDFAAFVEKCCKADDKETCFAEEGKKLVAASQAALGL

Structure (SMILES)	Log K'
CNS(=O)(=O)Cc1ccc2[nH]cc(CCN(C)C)c2c1	0.05
CCCC(=O)Nc1ccc(OCC(O)CNC(C)C)c(C(C)=O)c1 (centres undefined) [ACEBUTOLOL]	0.21
CC(=O)Nc1ccc(O)cc1 [ACETAMINOPHEN]	0.81
Cc1ccc(/C(=C\CN2CCCC2)c2cccc(/C=C/C(=O)O)n2)cc1 [ACRIVASTINE]	0.02
C=CCc1ccccc1OCC(O)CNC(C)C (centres undefined) [ALPRENOLOL]	0.04
CC1(C)S[C@@H]2[C@H](NC(=O)[C@H](N)c3ccc(O)cc3)C(=O)N2[C@H]1C(=O)O [AMOXICILLIN]	1.21
Cc1cc(=O)n(-c2ccccc2)n1C [ANTIPYRINE]	0.69
CC(=O)Oc1ccccc1C(=O)O [ASPIRIN]	1.39
CCCCNc1cc(C(=O)O)cc(S(N)(=O)=O)c1Oc1ccccc1 [BUMETANIDE]	0.03
CC(NC(C)(C)C)C(=O)c1cccc(Cl)c1 (centres undefined) [BUPROPION]	0.05
Cn1c(=O)c2c(ncn2C)n(C)c1=O [CAFFEINE]	0.92
CC[C@@]1(O)C(=O)OCc2c1cc1n(c2=O)Cc2cc3ccccc3nc2-1 [CAMPTOTHECIN]	0.08
C[C@H](CS)C(=O)N1CCC[C@H]1C(=O)O [CAPTOPRIL]	2.69
CO/N=C(\C(=O)N[C@@H]1C(=O)N2C(C(=O)OC(C)OC(C)=O)=C(COC(N)=O)CS[C@H]12)c1ccco1 (some centres undefined) [CEFUROXIME AXETIL]	0.56
CO/N=C(\C(=O)N[C@@H]1C(=O)N2C(C(=O)O)=C(COC(N)=O)CS[C@H]12)c1ccco1 [CEFUROXIME]	1.33
O=C(N[C@H](CO)[C@H](O)c1ccc([N+](=O)[O-])cc1)C(Cl)Cl [CHLORAMPHENICOL]	0.46
CCCNC(=O)NS(=O)(=O)c1ccc(Cl)cc1 [CHLORPROPAMIDE]	0.44
CN/C(=N/CCSCc1nc[nH]c1C)NC#N [CIMETIDINE]	0.44
CCOC(=O)C(C)(C)Oc1ccc(Cl)cc1 [CLOFIBRATE]	0.27
Clc1cccc(Cl)c1N=C1NCCN1 [CLONIDINE]	0.13
Clc1ccccc1C(c1ccccc1)(c1ccccc1)n1ccnc1 [CLOTRIMAZOLE]	1.34
O=C(O)c1cc(=O)c2c(OCC(O)COc3cccc4oc(C(=O)O)cc(=O)c34)cccc2o1 [CROMOLYN]	1.07
CN(C)c1cccc2c(S(=O)(=O)NCC(=O)O)cccc12 [DANSYLGLYCINE]	-0.26
CNCCCN1c2ccccc2CCc2ccccc21 [DESIPRAMINE]	0.61
C[C@H]1O[C@@H](O[C@H]2[C@@H](O)C[C@H](O[C@H]3[C@@H](O)C[C@H](O[C@H]4CC[C@@]5(C)[C@H](CC[C@@H]6[C@@H]5CC[C@]5(C)[C@@H](C7=CC(=O)OC7)CC[C@]65O)C4)O[C@@H]3C)O[C@@H]2C)C[C@H](O)[C@@H]1O [DIGITOXIN]	0.13

Structure (SMILES)	Log K'
C[C@H]1c2cccc(O)c2C(=O)C2=C(O)[C@]3(O)C(=O)C(C(N)=O)=C(O)[C@@H](N(C)C)[C@@H]3[C@@H](O)[C@@H]21.O [DOXYCYCLINE]	0.01
O=C(CCCN1CC=C(n2c(=O)[nH]c3ccccc32)CC1)c1ccc(F)cc1 [DROPERIDOL]	0.43
O=c1c2ccccc2[se]n1-c1ccccc1 [EBSELEN]	1.04
C[C@]12CC[C@@H]3c4ccc(O)cc4CC[C@H]3[C@@H]1CC[C@@H]2O [ESTRADIOL]	0.68
Nc1nc(=O)[nH]cc1F [FLUCYTOSINE]	1.11
CC(=O)O[C@H]1C[C@@]2(C)[C@@H](C[C@@H](O)[C@H]3[C@@]4(C)CC[C@@H](O)[C@@H](C)[C@@H]4CC[C@@]32C)/C1=C(\CCC=C(C)C)C(=O)O [FUSIDIC ACID]	0.33
COc1ccc(Cl)cc1C(=O)NCCc1ccc(S(=O)(=O)NC(=O)NC2CCCCC2)cc1 [GLYBURIDE]	0.68
NS(=O)(=O)c1cc2c(cc1Cl)NCNS2(=O)=O [HYDROCHLOROTHIAZIDE]	0.42
C[C@]12CCC(=O)C=C1CC[C@@H]1[C@@H]2[C@@H](O)C[C@@]2(C)[C@H]1CC[C@]2(O)C(=O)CO [HYDROCORTISONE]	0.4
CN(C)CCCN1c2ccccc2CCc2ccccc21 [IMIPRAMINE]	0.75
CCC(C)n1ncn(-c2ccc(N3CCN(c4ccc(OC[C@H]5CO[C@](Cn6cncn6)(c6ccc(Cl)cc6Cl)O5)cc4)CC3)cc2)c1=O (some centres undefined) [ITRACONAZOLE]	1.04
CC(=O)N1CCN(c2ccc(OC[C@H]3CO[C@](Cn4ccnc4)(c4ccc(Cl)cc4Cl)O3)cc2)CC1 [KETOCONAZOLE]	0.84
CC(CCc1ccccc1)NCC(O)c1ccc(O)c(C(N)=O)c1 (centres undefined) [LABETALOL]	0.14
Nc1nnc(-c2cccc(Cl)c2Cl)c(N)n1 [LAMOTRIGINE]	0.13
C[C@H]1COc2c(N3CCN(C)CC3)c(F)cc3c(=O)c(C(=O)O)cn1c23.C[C@H]1COc2c(N3CCN(C)CC3)c(F)cc3c(=O)c(C(=O)O)cn1c23.O [LEVOFLOXACIN]	0.14
CN(Cc1cnc2nc(N)nc(N)c2n1)c1ccc(C(=O)N[C@@H](CCC(=O)O)C(=O)O)cc1 [METHOTREXATE]	0.77
C[C@H]1C[C@@H]2[C@H]([C@@H](O)C[C@@]3(C)[C@H]2CC[C@]3(O)C(=O)CO)[C@@]2(C)C=CC(=O)C=C12 [METHYLPREDNISOLONE]	0.22
COCCc1ccc(OCC(O)CNC(C)C)cc1 (centres undefined) [METOPROLOL]	0.29
CN(C)c1ccc(O)c2c1C[C@H]1C[C@H]3[C@H](N(C)C)C(O)=C(C(N)=O)C(=O)[C@@]3(O)C(O)=C1C2=O [MINOCYCLINE]	0.21
CC(C)(C)NCC(O)COc1cccc2c1CC(O)C(O)C2 (centres undefined) [NADOLOL]	0.4
CCn1cc(C(=O)O)c(=O)c2cc(F)c(N3CCNCC3)cc21 [NORFLOXACIN]	0.14
CO[C@@H]1[C@@H](OC(N)=O)[C@@H](O)[C@H](Oc2ccc3c(O)c(NC(=O)c4ccc(O)c(CC=C(C)C)c4)c(=O)oc3c2C)OC1(C)C [NOVOBIOCIN]	0.35
Cc1nccn1CC1CCc2c(c3ccccc3n2C)C1=O (centres undefined) [ONDANSETRON]	0.37
C=CCOc1ccccc1OCC(O)CNC(C)C (centres undefined) [OXPRENOLOL]	0.15
CCCCC1C(=O)N(c2ccccc2)N(c2ccc(O)cc2)C1=O (centres undefined) [OXYPHENBUTAZONE ANHYDROUS]	0.02

Structure (SMILES)	Log K'
CC1(C)S[C@@H]2[C@H](NC(=O)COc3ccccc3)C(=O)N2[C@H]1C(=O)O [PENICILLIN V]	0.69
CC(C)NCC(O)COc1cccc2[nH]ccc12 (centres undefined) [PINDOLOL]	0.13
COc1cc2nc(N3CCN(C(=O)c4ccco4)CC3)nc(N)c2cc1OC [PRAZOSIN]	0.06
C[C@]12C=CC(=O)C=C1CC[C@@H]1[C@@H]2[C@@H](O)C[C@@]2(C)[C@H]1CC[C@]2(O)C(=O)CO [PREDNISOLONE]	0.4
CCN(CC)CCOC(=O)c1ccc(N)cc1 [PROCAINE]	0.19
CC(=O)[C@H]1CC[C@H]2[C@@H]3CCC4=CC(=O)CC[C@]4(C)[C@H]3CC[C@]12C [PROGESTERONE]	0.59
CN(C)CCCN1c2ccccc2Sc2ccccc21 [PROMAZINE]	0.92
CC(C)NCC(O)COc1cccc2ccccc12 (centres undefined) [PROPRANOLOL]	0.28
C=C[C@H]1C[N@@]2CC[C@H]1C[C@@H]2[C@@H](O)c1ccnc2ccc(OC)cc12 [QUINIDINE]	0.44
C=C[C@H]1C[N@@]2CC[C@H]1C[C@H]2[C@H](O)c1ccnc2ccc(OC)cc12 [QUININE]	0.49
CNC(=C[N+](=O)[O-])NCCSCc1ccc(CN(C)C)o1 [RANITIDINE]	0.1
CN(C)[C@@H]1C(O)=C(C(N)=O)C(=O)[C@@]2(O)C(O)=C3C(=O)c4c(O)cccc4C[C@H]3C[C@@H]12 [SANCYCLINE]	0.21
CC(C)NCC(O)c1ccc(NS(C)(=O)=O)cc1 (centres undefined) [SOTALOL]	0.44
Nc1ccc(S(=O)(=O)Nc2ccnn2-c2ccccc2)cc1 [SULFAPHENAZOLE]	0.21
COc1cc2nc(N3CCN(C(=O)C4CCCO4)CC3)nc(N)c2cc1OC (centres undefined) [TERAZOSIN]	0.16
CN(C/C=C/C#CC(C)(C)C)Cc1cccc2ccccc12 [TERBINAFINE]	1.17
C[C@]12CC[C@H]3[C@@H](CCC4=CC(=O)CC[C@@]43C)[C@@H]1CC[C@@H]2O [TESTOSTERONE]	0.74
CCCCNc1ccc(C(=O)OCCN(C)C)cc1 [TETRACAINE]	0.32
CN(C)[C@@H]1C(O)=C(C(N)=O)C(=O)[C@@]2(O)C(O)=C3C(=O)c4c(O)cccc4[C@@](C)(O)[C@H]3C[C@@H]12 [TETRACYCLINE]	0.08
CC(C)(C)NC[C@H](O)COc1nsnc1N1CCOCC1 [TIMOLOL]	0.33
Cc1ccc(S(=O)(=O)NC(=O)NN2CCCCCC2)cc1 [TOLAZAMIDE]	0.42
CN(C)CCCN1c2ccccc2Sc2ccc(C(F)(F)F)cc21 [TRIFLUPROMAZINE]	1.05
COc1cc(Cc2cnc(N)nc2N)cc(OC)c1OC [TRIMETHOPRIM]	0.26
N[C@@H](Cc1c[nH]c2ccccc12)C(=O)O [TRYPTOPHAN]	0.78
